Measurements taken from PMC9797307, “Measurement of Pharmacokinetics and Tissue Distribution of Four Compounds from Nauclea officinalis in Rat Plasma and Tissues through HPLC-MS/MS” (Journal of Analytical Methods in Chemistry, 2022).

Test: Stability of QC samples in rat plasma and tissue homogenates under different storage conditions
Type: in vitro ADME
Conditions: in % (unit assumed)

## C/C=C1/COC(=O)[C@H]2C(=O)N3CCc4c([nH]c5ccccc45)[C@@H]3C[C@@H]12 [Naucleactonin C]
Brain, 5 ng/mL
  Accuracy, Ambient temperature for 4 h: 106.35 ± 11.82
  Accuracy, Autosampler at 4°C for 8 h: 109.83 ± 6.05
  Accuracy, Three freeze-thraw cycles: 98.92 ± 10.65
  Accuracy, −80°C for 30 days: 104.10 ± 10.88
Brain, 8 ng/mL
  Accuracy, Ambient temperature for 4 h: 88.87 ± 10.43
  Accuracy, Autosampler at 4°C for 8 h: 90.65 ± 6.37
  Accuracy, Three freeze-thraw cycles: 89.95 ± 9.23
  Accuracy, −80°C for 30 days: 88.82 ± 10.57
Brain, 140 ng/mL
  Accuracy, Ambient temperature for 4 h: 88.33 ± 6.74
  Accuracy, Autosampler at 4°C for 8 h: 87.92 ± 8.15
  Accuracy, Three freeze-thraw cycles: 87.20 ± 4.98
  Accuracy, −80°C for 30 days: 87.93 ± 5.81
Brain, 2400 ng/mL
  Accuracy, Ambient temperature for 4 h: 99.43 ± 6.38
  Accuracy, Autosampler at 4°C for 8 h: 112.67 ± 6.62
  Accuracy, Three freeze-thraw cycles: 109.67 ± 6.44
  Accuracy, −80°C for 30 days: 109.00 ± 5.22
Heart, 5 ng/mL
  Accuracy, Ambient temperature for 4 h: 111.97 ± 11.63
  Accuracy, Autosampler at 4°C for 8 h: 100.78 ± 9.63
  Accuracy, Three freeze-thraw cycles: 107.98 ± 9.45
  Accuracy, −80°C for 30 days: 107.42 ± 10.24
Heart, 8 ng/mL
  Accuracy, Ambient temperature for 4 h: 110.50 ± 4.42
  Accuracy, Autosampler at 4°C for 8 h: 107.25 ± 9.25
  Accuracy, Three freeze-thraw cycles: 109.08 ± 8.25
  Accuracy, −80°C for 30 days: 110.87 ± 9.04
Heart, 140 ng/mL
  Accuracy, Ambient temperature for 4 h: 102.78 ± 6.89
  Accuracy, Autosampler at 4°C for 8 h: 104.88 ± 3.80
  Accuracy, Three freeze-thraw cycles: 100.40 ± 9.13
  Accuracy, −80°C for 30 days: 98.28 ± 5.70
Heart, 2400 ng/mL
  Accuracy, Ambient temperature for 4 h: 112.33 ± 10.41
  Accuracy, Autosampler at 4°C for 8 h: 111.50 ± 5.68
  Accuracy, Three freeze-thraw cycles: 112.33 ± 5.72
  Accuracy, −80°C for 30 days: 110.50 ± 4.81
Kidney, 5 ng/mL
  Accuracy, Ambient temperature for 4 h: 109.33 ± 7.55
  Accuracy, Autosampler at 4°C for 8 h: 106.08 ± 8.96
  Accuracy, Three freeze-thraw cycles: 98.92 ± 9.91
  Accuracy, −80°C for 30 days: 97.18 ± 10.46
Kidney, 8 ng/mL
  Accuracy, Ambient temperature for 4 h: 99.10 ± 4.24
  Accuracy, Autosampler at 4°C for 8 h: 97.38 ± 7.31
  Accuracy, Three freeze-thraw cycles: 91.10 ± 9.20
  Accuracy, −80°C for 30 days: 94.77 ± 7.62
Kidney, 140 ng/mL
  Accuracy, Ambient temperature for 4 h: 96.08 ± 7.36
  Accuracy, Autosampler at 4°C for 8 h: 95.43 ± 7.99
  Accuracy, Three freeze-thraw cycles: 101.10 ± 4.98
  Accuracy, −80°C for 30 days: 100.25 ± 8.25
Kidney, 2400 ng/mL
  Accuracy, Ambient temperature for 4 h: 108.00 ± 5.62
  Accuracy, Autosampler at 4°C for 8 h: 103.87 ± 4.68
  Accuracy, Three freeze-thraw cycles: 104.57 ± 6.09
  Accuracy, −80°C for 30 days: 102.30 ± 5.90
Liver, 5 ng/mL
  Accuracy, Ambient temperature for 4 h: 101.78 ± 11.83
  Accuracy, Autosampler at 4°C for 8 h: 107.70 ± 5.36
  Accuracy, Three freeze-thraw cycles: 98.32 ± 6.66
  Accuracy, −80°C for 30 days: 98.38 ± 12.07
Liver, 8 ng/mL
  Accuracy, Ambient temperature for 4 h: 87.60 ± 5.90
  Accuracy, Autosampler at 4°C for 8 h: 86.47 ± 4.52
  Accuracy, Three freeze-thraw cycles: 90.60 ± 4.91
  Accuracy, −80°C for 30 days: 86.00 ± 8.60
Liver, 140 ng/mL
  Accuracy, Ambient temperature for 4 h: 88.57 ± 2.44
  Accuracy, Autosampler at 4°C for 8 h: 95.00 ± 4.15
  Accuracy, Three freeze-thraw cycles: 96.28 ± 4.36
  Accuracy, −80°C for 30 days: 97.32 ± 7.17
Liver, 2400 ng/mL
  Accuracy, Ambient temperature for 4 h: 98.93 ± 3.81
  Accuracy, Autosampler at 4°C for 8 h: 91.37 ± 2.51
  Accuracy, Three freeze-thraw cycles: 89.35 ± 3.70
  Accuracy, −80°C for 30 days: 89.97 ± 7.32
Lung, 5 ng/mL
  Accuracy, Ambient temperature for 4 h: 109.50 ± 11.47
  Accuracy, Autosampler at 4°C for 8 h: 100.40 ± 10.26
  Accuracy, Three freeze-thraw cycles: 101.05 ± 5.33
  Accuracy, −80°C for 30 days: 95.98 ± 10.47
Lung, 8 ng/mL
  Accuracy, Ambient temperature for 4 h: 94.73 ± 8.92
  Accuracy, Autosampler at 4°C for 8 h: 91.40 ± 9.71
  Accuracy, Three freeze-thraw cycles: 101.90 ± 10.45
